Data as given in patent publication US20240025862A1, “SUBSTITUTED N-PHENYLURACILS AND SALTS THEREOF, AND USE THEREOF AS HERBICIDAL ACTIVE SUBSTANCES” (Bayer Aktiengesellschaft, priority 2020, published 2024).

Key:
Format in all cases: in vivo
[1] = test system: Matricaria inodora (MATIN); test: Post-emergence herbicidal action, greenhouse pot test (also comparative test C)
Method: (§1) Seeds of monocotyledonous and dicotyledonous weeds and crop plants were placed in sandy loam in plastic or wood-fiber pots, covered with soil and cultivated in a greenhouse under controlled growth conditions. 2 to 3 weeks after sowing, the test plants were treated at the one-leaf stage. The compounds of the invention, formulated in the form of wettable powders (WP) or as emulsion concentrates (EC), were then sprayed onto the green parts of the plants as aqueous suspension or emulsion with addition of 0.5% additive at a water application rate of 600 l/ha (converted). After the test plants had been kept in the greenhouse under optimum growth conditions for about 3 weeks, the activity of the preparations was rated visually in comparison to untreated controls. For example, 100% activity=the plants have died, 0% activity=like control plants.
(§2) Tables A1 to A14 below show the effects of selected compounds of the general formula (I) according to Tables I.1 to I.33 on various harmful plants and at an application rate corresponding to 20 g/ha and less, which were obtained by the experimental method specified above. The appendices “a”, “b” and “c” give differentiation by different dosage with otherwise the same harmful plants tested.
(§3) C. Comparative Herbicidal Action and Crop Plant Compatibility of Two Inventive Compounds (I.7-1 and I.7-115) with a Compound of Similar Structure Known from the Literature (WO2002/098227, a-17 and EP1106607, 3-14) in Post-Emergence Treatment.
(§4) Tables C1-C4 below show the effects of two inventive compounds (I.7-1 and I.7-115) together with a compound of similar structure known from the literature (a-17 in WO2002/098227, and 3-14 in EP1106607) in different crop plants at an application rate corresponding to 5 g/ha or less, which have been obtained by the aforementioned experimental procedure.

[2] = test system: Oryza sativa (ORYSA); test: Post-emergence crop plant compatibility, greenhouse pot test (also comparative test C); conditions: for Post-emergence action against ORYSA (crop plant compatibility): vs untreated controls; for Post-emergence action against ORYSA in %: 20 g/ha
Method: as §1
(§5) The observed effects on selected crop plants are reported here in comparison to the untreated controls (values in %). The appendices “a”, “b” and “c” give differentiation by different dosage with otherwise the same crop plants tested.
as §3

[3] = test system: Setaria viridis (SETVI); test: Post-emergence herbicidal action, greenhouse pot test (also comparative test C); conditions: for Post-emergence action against SETVI: 20 g/ha
Method: as §1, §2, §3, §4

[4] = test system: Alopecurus myosuroides (ALOMY); test: as above; conditions: for ALOMY (efficacy in %): comparative test C, application rate 5 g/ha
Method: as §1, §2, §3, §4

[5] = test system: Echinochloa crus-galli (ECHCG); test: as above; conditions: for Post-emergence action at 1.25 g/ha against ECHCG in %: rated visually after about 3 weeks vs untreated controls, 100% = plants have died
Method: as §1, §2, §3, §4

[6] = test system: Triticum aestivum (TRZAS); test: Post-emergence crop plant compatibility, greenhouse pot test; conditions: vs untreated controls
Method: as §1, §5

[7] = test system: Veronica persica (VERPE); test: Post-emergence herbicidal action, greenhouse pot test
Method: as §1, §2

[8] = test system: Viola tricolor (VIOTR); test: as above
Method: as §1, §2

[9] = test system: Pharbitis purpurea (PHBPU); test: as above
Method: as §1, §2

[10] = test system: Amaranthus retroflexus (AMARE); test: as above; conditions: rated visually after about 3 weeks vs untreated controls, 100% = plants have died
Method: as §1, §2

[11] = test system: Polygonum convolvulus (POLCO); test: as above
Method: as §1, §2

[12] = test system: Abutilon theophrasti (ABUTH); test: as above; conditions: rated visually after about 3 weeks vs untreated controls, 100% = plants have died
Method: as §1, §2

[13] = rated visually after about 3 weeks vs untreated controls, 100% = plants have died
[14] = comparative test C, application rate 1.25 g/ha

Row | Structure (SMILES) | Post-emergence action against MATIN in % ([1]; dosage 5 g/ha) [%] | Post-emergence action against MATIN in % ([1]; dosage 20 g/ha) [%] | Post-emergence action against SETVI [3] [%] | Post-emergence action against SETVI in % ([3]; dosage 1.25 g/ha) [%] | Post-emergence action against SETVI in % ([3]; dosage 5 g/ha) [%] | Post-emergence action at 20 g/ha against ALOMY in % [4, 13] [%] | Post-emergence action against ECHCG in % ([5]; dosage 20 g/ha) [%] | Post-emergence action against TRZAS (crop plant compatibility) ([6]; 1.25 g/ha) [%] | Post-emergence action against VERPE ([7]; 1.25 g/ha) [%] | Post-emergence action against VERPE ([7]; 5 g/ha) [%] | Post-emergence action against VERPE ([7]; 20 g/ha) [%] | Post-emergence action against VIOTR ([8]; 5 g/ha) [%] | Post-emergence action against VIOTR ([8]; 20 g/ha) [%] | Post-emergence action against PHBPU in % ([9]; dosage 1.25 g/ha) [%] | Post-emergence action against PHBPU in % ([9]; dosage 5 g/ha) [%] | Post-emergence action against PHBPU in % ([9]; dosage 20 g/ha) [%] | Post-emergence action at 1.25 g/ha against AMARE in % [10] [%] | Post-emergence action at 5 g/ha against AMARE in % [10] [%] | Post-emergence action at 20 g/ha against AMARE in % [10] [%] | Post-emergence action against POLCO in % ([11]; dosage 20 g/ha) [%] | other results
1 | Cn1c(C(F)(F)F)cc(=O)n(-c2cc(Oc3ccccc3OCC(=O)OCC3CCCO3)c(Cl)cc2F)c1=O (racemic) [Example 1.7-71] | 100 |  |  |  |  |  |  |  |  |  |  |  |  |  |  |  |  |  |  |  | 
2 | COCCOCCOC(=O)COc1cccc(F)c1Oc1cc(-n2c(=O)cc(C(F)(F)F)n(C)c2=O)c(F)cc1Cl [I.19-23] | 100 | 100 | 100 | 100 | 100 | 100 | 100 | 10 | 100 | 100 | 100 | 100 | 100 | 100 | 100 | 100 | 100 | 100 | 100 | 100 | Post-emergence action against ORYSA (crop plant compatibility) ([2]; 1.25 g/ha): 10%; Post-emergence action at 5 g/ha against ALOMY in % ([4]; 5 g/ha, rated visually after about 3 weeks vs untreated controls, 100% = plants have died): 80%; Post-emergence action against ECHCG in % ([5]; dosage 5 g/ha): 100%; Post-emergence action against POLCO in % ([11]; dosage 1.25 g/ha): 100%; Post-emergence action against POLCO in % ([11]; dosage 5 g/ha): 100%; Post-emergence action at 5 g/ha against ABUTH in % [12]: 100%; Post-emergence action at 20 g/ha against ABUTH in % [12]: 100%
3 | COCCOC(=O)COc1cccc(F)c1Oc1cc(-n2c(=O)cc(C(F)(F)F)n(C)c2=O)c(F)cc1Cl [I.19-1] | 90 | 100 | 100 | 100 | 100 | 100 | 100 | 20 | 100 | 100 | 100 | 100 | 100 | 100 | 100 | 100 | 100 | 100 | 100 | 100 | Post-emergence action at 1.25 g/ha against ECHCG in % [5]: 100%; Post-emergence action against ECHCG in % ([5]; dosage 5 g/ha): 100%; Post-emergence action against VIOTR ([8]; 1.25 g/ha): 100%; Post-emergence action against POLCO in % ([11]; dosage 5 g/ha): 100%; Post-emergence action at 1.25 g/ha against ABUTH in % [12]: 100%; Post-emergence action at 5 g/ha against ABUTH in % [12]: 100%; Post-emergence action at 20 g/ha against ABUTH in % [12]: 100%
4 | Cn1c(C(F)(F)F)cc(=O)n(-c2cc(Oc3ccccc3OCC(=O)OC3COC3)c(Cl)cc2F)c1=O [drawing 111] |  |  |  |  |  |  |  |  |  |  |  |  |  |  |  |  |  |  |  |  | ALOMY (efficacy in %) [4]: 100%
5 | COCCOCCOC(=O)COc1ccccc1Oc1cc(-n2c(=O)cc(C(F)(F)F)n(C)c2=O)c(F)cc1C#N [I.9-23] | 80 | 100 | 100 | 100 | 100 | 80 | 100 | 0 | 80 | 100 | 100 | 100 | 100 | 80 | 100 | 100 | 100 | 100 | 100 | 100 | Post-emergence action against ORYSA (crop plant compatibility) ([2]; 1.25 g/ha): 0%; Post-emergence action against ORYSA (crop plant compatibility) ([2]; 5 g/ha): 0%; Post-emergence action against ORYSA in % ([2]; crop plant compatibility): 20%; Post-emergence action against TRZAS (crop plant compatibility) ([6]; 5 g/ha): 20%; Post-emergence action against TRZAS (crop plant compatibility) ([6]; 20 g/ha): 20%; Post-emergence action against VIOTR ([8]; 1.25 g/ha): 100%; Post-emergence action against POLCO in % ([11]; dosage 5 g/ha): 100%; Post-emergence action at 1.25 g/ha against ABUTH in % [12]: 80%; Post-emergence action at 5 g/ha against ABUTH in % [12]: 100%; Post-emergence action at 20 g/ha against ABUTH in % [12]: 100%
6 | CCCCOC(=O)COc1ccccc1Oc1cc(-n2c(=O)cc(C(F)(F)F)n(C)c2=O)c(F)cc1Cl [a-17, reference compound] |  |  |  |  |  |  |  |  |  |  |  |  |  |  |  |  |  |  |  |  | ORYSA (efficacy in %) ([2]; comparative test C, application rate 1.25 g/ha, crop plant compatibility): 20%; MATIN (efficacy in %) [1, 14]: 30%; SETVI (efficacy in %) [3, 14]: 80%; ECHCG (efficacy in %) [5, 14]: 60%
7 | Cn1c(C(F)(F)F)cc(=O)n(-c2cc(Oc3cc(F)ccc3OCC(=O)OCc3ccccn3)c(Cl)cc2F)c1=O [I.23-276] |  | 90 | 100 | 100 | 100 | 100 | 100 | 20 | 80 | 100 | 100 | 100 | 100 | 90 | 100 | 100 | 90 | 100 | 100 | 100 | Post-emergence action against ORYSA (crop plant compatibility) ([2]; 1.25 g/ha): 0%; Post-emergence action against ORYSA (crop plant compatibility) ([2]; 5 g/ha): 10%; Post-emergence action against ORYSA in % ([2]; crop plant compatibility): 10%; Post-emergence action at 1.25 g/ha against ECHCG in % [5]: 100%; Post-emergence action against ECHCG in % ([5]; dosage 5 g/ha): 100%; Post-emergence action against TRZAS (crop plant compatibility) ([6]; 5 g/ha): 20%; Post-emergence action against VIOTR ([8]; 1.25 g/ha): 80%; Post-emergence action at 1.25 g/ha against ABUTH in % [12]: 90%; Post-emergence action at 5 g/ha against ABUTH in % [12]: 100%; Post-emergence action at 20 g/ha against ABUTH in % [12]: 100%
8 | CCCCOC(=O)COc1ccccc1Oc1cc(-n2c(=O)cc(C(F)(F)F)n(C)c2=O)c(F)cc1Cl [drawing 112] |  |  |  |  |  |  |  |  |  |  |  |  |  |  |  |  |  |  |  |  | ALOMY (efficacy in %) [4]: 30%
9 | COCCOC(=O)COc1ccccc1Oc1cc(-n2c(=O)cc(C(F)(F)F)n(C)c2=O)c(F)cc1Cl [drawing 110] |  |  |  |  |  |  |  |  |  |  |  |  |  |  |  |  |  |  |  |  | ALOMY (efficacy in %) [4]: 80%
